Assay results published in US20220265817A1, “THERAPEUTIC COMPOSITIONS AND METHODS FOR TREATING HEPATITIS B” (priority 2017, published 2022).
pEC50: −log10 of the molar value. “And” between values parts separate entries of the source, which are not always exact repeats. Equal entries are not always repeated. Where two headings read alike, the source gives them in different places.

Columns and labels:
Test in all cases: microbe, parasite or virus in culture
Type in all cases: cell-based
[1] = test system: D type HBV in primary human hepatocytes (HBeAg)
Procedure: (§1) The mouse liver perfusion was applied to isolate PHHs. The isolated hepatocytes were further purified by Percoll. The cells were resuspended with culture media and seeded into the 96-well plates (6×10^4 cell/well) or 48-well plates (1.2×10^5 cell/well). The PHHs were infected with a D type HBV one day post seeding (day 1).
(§2) On day 2, the test compounds were diluted and added into the cell culture plates. The culture media containing the compounds were refreshed every other day. The cell culture supernatants were collected on day 8 for the HBV DNA and antigen determinations.
(§3) The compounds were tested at 7 concentrations, 3-fold dilution, in triplicate.
(§4) Two compounds were tested at 5×5 matrix, in triplicate plates.
(§5) HBsAg/HBeAg in the culture supernatants harvested on days 8 were measured by the HBsAg/HBeAg ELISA kit (Autobio) according to the manual. The samples were diluted with PBS to get the signal in the range of the standard curve. The inhibition rates were calculated with the formula below. The combination effect was analyzed by the MacSynergy software.
% Inh. HBeAg=[1-HBeAg quantity of sample/HBV quantity of DMSO control]×100.

[2] = test system: D type HBV in primary human hepatocytes (HBsAg)
Procedure: as §1, §2, §3, §4, §5
% Inh. HBsAg=[1-HBsAg quantity of sample/HBV quantity of DMSO control]×100.

[3] = test system: D type HBV in primary human hepatocytes; details: for pEC50: PHH
Procedure: as §1, §2, §3, §4
DNA in the culture supernatants harvested on days 8 were isolated with QIAamp 96 DNA Blood Kit (Qiagen-51161). For each sample, 100 μl of the culture supernatants was used to extract DNA. The DNA was eluted with 100 μl, 150 μl or 180 μl of AE. HBV DNA in the culture supernatants was quantified by qPCR. The combination effect was analyzed by the MacSynergy software. The primers are described below.

[4] = Hepatitis B virus, Hepatocyte, 432 h, read-out: Inhibitor B EC50
[5] = Hepatitis B virus, Hepatocyte, 456 h, read-out: Inhibitor A EC50

CNC(=O)N[C@H]1CCOc2c(C(=O)Nc3ccc(F)c(F)c3)ccc(F)c21 [Compound 23]
inhibition at 0.02469 µM ([1]; Hepatitis B virus, Hepatocyte, read-out: AVERAGE % INHIBITION HBeAg, compound 23 24.69 nM alone): -8.82%
inhibition at 0.07407 µM ([1]; Hepatitis B virus, Hepatocyte, read-out: AVERAGE % INHIBITION HBeAg, compound 23 74.07 nM alone): -6.36%
inhibition at 0.22222 µM ([1]; Hepatitis B virus, Hepatocyte, read-out: AVERAGE % INHIBITION HBeAg, compound 23 222.22 nM alone): -12.7%
inhibition at 0.66667 µM ([1]; Hepatitis B virus, Hepatocyte, read-out: AVERAGE % INHIBITION HBeAg, compound 23 666.67 nM alone): -7.94%
inhibition at 2 µM ([1]; Hepatitis B virus, Hepatocyte, read-out: AVERAGE % INHIBITION HBeAg, compound 23 2000.00 nM alone): -1.09%
pEC50 ([1]; Hepatitis B virus, Hepatocyte, HBeAg, PHH, determined in an earlier separate experiment, read-out: Inhibitor B EC50): 5.34
inhibition at 0.02469 µM ([2]; Hepatitis B virus, Hepatocyte, read-out: AVERAGE % INHIBITION HBsAg, compound 23 24.69 nM alone (TDF study)): -13.9%
inhibition at 0.024691 µM ([2]; Hepatitis B virus, Hepatocyte, read-out: AVERAGE % INHIBITION HBsAg, compound 23 24.691 nM alone (TAF study)): 0.77%
inhibition at 0.07407 µM ([2]; Hepatitis B virus, Hepatocyte, read-out: AVERAGE % INHIBITION HBsAg, compound 23 74.07 nM alone (TDF study)): -10.9%
inhibition at 0.074074 µM ([2]; Hepatitis B virus, Hepatocyte, read-out: AVERAGE % INHIBITION HBsAg, compound 23 74.074 nM alone (TAF study)): -5.27%
inhibition at 0.22222 µM ([2]; Hepatitis B virus, Hepatocyte, read-out: AVERAGE % INHIBITION HBsAg, compound 23 222.22 nM alone (TAF study)): 4.83%
inhibition at 0.22222 µM ([2]; Hepatitis B virus, Hepatocyte, read-out: AVERAGE % INHIBITION HBsAg, compound 23 222.22 nM alone (TDF study)): -11.6%
inhibition at 0.66667 µM ([2]; Hepatitis B virus, Hepatocyte, read-out: AVERAGE % INHIBITION HBsAg, compound 23 666.67 nM alone (TAF study)): 1.95%
inhibition at 0.66667 µM ([2]; Hepatitis B virus, Hepatocyte, read-out: AVERAGE % INHIBITION HBsAg, compound 23 666.67 nM alone (TDF study)): -4.45%
inhibition at 2 µM ([2]; Hepatitis B virus, Hepatocyte, read-out: AVERAGE % INHIBITION HBsAg, compound 23 2000.00 nM alone (TDF study)): 0.48%
pEC50 ([2]; Hepatitis B virus, Hepatocyte, read-out: Inhibitor B EC50): 5.36
inhibition at 0.02469 µM ([3]; Hepatitis B virus, Hepatocyte, read-out: AVERAGE % […] DNA, compound 23 24.69 nM alone (TDF study)): -15.3%
inhibition at 0.024691 µM ([3]; Hepatitis B virus, Hepatocyte, read-out: AVERAGE % […] DNA, compound 23 24.691 nM alone (TAF study)): -4.57%
inhibition at 0.07407 µM ([3]; Hepatitis B virus, Hepatocyte, read-out: AVERAGE % […] DNA, compound 23 74.07 nM alone (TDF study)): -36.6%
inhibition at 0.074074 µM ([3]; Hepatitis B virus, Hepatocyte, read-out: AVERAGE % […] DNA, compound 23 74.074 nM alone (TAF study)): -2.49%
inhibition at 0.22222 µM ([3]; Hepatitis B virus, Hepatocyte, read-out: AVERAGE % […] DNA, compound 23 222.22 nM alone (TAF study)): 11.1%
inhibition at 0.22222 µM ([3]; Hepatitis B virus, Hepatocyte, read-out: AVERAGE % […] DNA, compound 23 222.22 nM alone (TDF study)): 0.78%
inhibition at 0.66667 µM ([3]; Hepatitis B virus, Hepatocyte, read-out: AVERAGE % […] DNA, compound 23 666.67 nM alone (TAF study)): 30.5%
inhibition at 0.66667 µM ([3]; Hepatitis B virus, Hepatocyte, read-out: AVERAGE % […] DNA, compound 23 666.67 nM alone (TDF study)): 30.4%
inhibition at 2 µM ([3]; Hepatitis B virus, Hepatocyte, read-out: AVERAGE % […] DNA, compound 23 2000 nM alone (TAF study)): 58.1%
inhibition at 2 µM ([3]; Hepatitis B virus, Hepatocyte, read-out: AVERAGE % […] DNA, compound 23 2000.00 nM alone (TDF study)): 70%
pEC50 ([3]; Hepatitis B virus, Hepatocyte, HBV DNA, determined in an earlier separate experiment, read-out: Inhibitor B EC50): 6.64

COCCCOc1cc2c(cc1OC)-c1cc(=O)c(C(=O)O)cn1C(C(C)C)C2 (centres unmarked) [Compound 25]
AVERAGE % INHIBITION HBeAg ([1]; COMPOUND 25 0.12 nM alone): 4.8%
AVERAGE % INHIBITION HBeAg ([1]; COMPOUND 25 0.37 nM alone): −0.51% and 2.9%
AVERAGE % INHIBITION HBeAg ([1]; COMPOUND 25 3.33 nM alone): 13.94%
AVERAGE % INHIBITION HBeAg ([1]; COMPOUND 25 10.00 nM alone): 28.42%
pEC50 [1, 4]: 8.24
pEC50 [1, 5]: 8.24
inhibition at 0.00012 µM ([1]; Hepatitis B virus, Hepatocyte, read-out: AVERAGE % INHIBITION HBeAg, COMPOUND 25 0.12 nM alone): 5.33%
inhibition at 0.00333 µM ([1]; Hepatitis B virus, Hepatocyte, read-out: AVERAGE % INHIBITION HBeAg, COMPOUND 25 3.33 nM alone): 8.74%
inhibition at 0.01 µM ([1]; Hepatitis B virus, Hepatocyte, read-out: AVERAGE % INHIBITION HBeAg, COMPOUND 25 10.00 nM alone): 33.2%
inhibition at 0.12 µM ([1]; Hepatitis B virus, Hepatocyte, read-out: AVERAGE % INHIBITION HBeAg, COMPOUND 25 0.12 μM alone): -11.2%
inhibition at 0.37 µM ([1]; Hepatitis B virus, Hepatocyte, read-out: AVERAGE % INHIBITION HBeAg, COMPOUND 25 0.37 μM alone): -13.8%
inhibition at 3.33 µM ([1]; Hepatitis B virus, Hepatocyte, read-out: AVERAGE % INHIBITION HBeAg, COMPOUND 25 3.33 μM alone): -7.31%
inhibition at 10 µM ([1]; Hepatitis B virus, Hepatocyte, read-out: AVERAGE % INHIBITION HBeAg, COMPOUND 25 10.00 μM alone): 22%
pEC50 ([1]; Hepatitis B virus, Hepatocyte, read-out: Inhibitor A EC50 HBeAg): 8.24
AVERAGE % INHIBITION (HBsAg) ([2]; COMPOUND 25 0.12 nM alone): 3.68% and 9.32%
AVERAGE % INHIBITION (HBsAg) ([2]; COMPOUND 25 3.33 nM alone): 20.81%
AVERAGE % INHIBITION (HBsAg) ([2]; COMPOUND 25 10.00 nM alone): 42.95%
pEC50 [2, 4]: 8.35
pEC50 [2, 5]: 8.35
inhibition at 0.12 µM ([2]; Hepatitis B virus, Hepatocyte, COMPOUND 25 0.12 μM alone): -5.64%
inhibition at 0.37 µM ([2]; Hepatitis B virus, Hepatocyte, COMPOUND 25 0.37 μM alone): -7.52%
inhibition at 0.00333 µM ([2]; Hepatitis B virus, Hepatocyte, read-out: AVERAGE % INHIBITION HBsAg, COMPOUND 25 3.33 nM alone): 13.1%
inhibition at 0.01 µM ([2]; Hepatitis B virus, Hepatocyte, read-out: AVERAGE % INHIBITION HBsAg, COMPOUND 25 10.00 nM alone): 33%
inhibition at 3.33 µM ([2]; Hepatitis B virus, Hepatocyte, read-out: AVERAGE % INHIBITION HBsAg, COMPOUND 25 3.33 μM alone): 8.81%
inhibition at 10 µM ([2]; Hepatitis B virus, Hepatocyte, read-out: AVERAGE % INHIBITION HBsAg, COMPOUND 25 10.00 μM alone): 42.5%
pEC50 ([2]; Hepatitis B virus, Hepatocyte, read-out: Inhibitor A EC50 HBsAg): 8.35
AVERAGE % INHIBITION HBV DNA ([3]; COMPOUND 25 0.37 nM alone): −51.8% and −46.48%
AVERAGE % INHIBITION HBV DNA ([3]; COMPOUND 25 3.33 nM alone): 16.41%
AVERAGE % INHIBITION HBV DNA ([3]; COMPOUND 25 10.00 nM alone): 37.39%
pEC50 ([3]; Hepatitis B virus, Hepatocyte, 432 h, HBV DNA endpoint, determined in an earlier separate experiment (Table 18d), read-out: Inhibitor B EC50): 9.18
pEC50 ([3]; Hepatitis B virus, Hepatocyte, 456 h, HBV DNA endpoint, determined in an earlier separate experiment (Table 19d), read-out: Inhibitor A EC50): 9.18
inhibition at 0.00333 µM ([3]; Hepatitis B virus, Hepatocyte, read-out: AVERAGE % […] DNA, COMPOUND 25 3.33 nM alone, read-out: AVERAGE % INHIBITION HBV DNA): 15.2%
inhibition at 0.01 µM ([3]; Hepatitis B virus, Hepatocyte, read-out: AVERAGE % […] DNA, COMPOUND 25 10.00 nM alone, read-out: AVERAGE % INHIBITION HBV DNA): 28%
inhibition at 0.12 µM ([3]; Hepatitis B virus, Hepatocyte, read-out: AVERAGE % […] DNA, compound 25 0.12 μM alone): -14.4%
inhibition at 0.37 µM ([3]; Hepatitis B virus, Hepatocyte, read-out: AVERAGE % […] DNA, compound 25 0.37 μM alone): -9.87%
inhibition at 3.33 µM ([3]; Hepatitis B virus, Hepatocyte, read-out: AVERAGE % […] DNA, compound 25 3.33 μM alone): 32.6%
inhibition at 10 µM ([3]; Hepatitis B virus, Hepatocyte, read-out: AVERAGE % […] DNA, compound 25 10.00 μM alone): 53.8%
pEC50 ([3]; Hepatitis B virus, Hepatocyte, determined in an earlier separate experiment, read-out: Inhibitor A EC50 HBV DNA): 9.18
